From patent publication US7138361B2, “Herbicidal heterocycles” (E. I. du Pont de Nemours and Company, priority 2000, dated 2006) come the findings set out here.

Assay in all cases: Test B postemergence
Type in all cases: in vivo

Assay [1] deals with barnyardgrass (Echinochloa crus-galli). A digest of the protocol: (§1)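 Post-treatment, species sat 13–15 days under greenhouse conditions before visual scoring against controls, 0 (no effect) through 100 (complete control). Application preemergence to sown seeds or postemergence at 1- to 4-leaf stage, using a non-phytotoxic solvent/surfactant formulation.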
In assay [2] the test system is wheat (Triticum aestivum). A digest of the protocol:
as §1

Assay [3] relates to pigweed (Amaranthus retroflexus). A digest of the protocol: as §1
The test system of assay [4] is Surinam grass (Brachiaria decumbens). A digest of the protocol:
as §1

In assay [5] the test system is giant foxtail (Setaria faberii). A digest of the protocol: as §1
The test system of assay [6] is lambsquarters (Chenopodium album). A digest of the protocol:
as §1

Assay [7] relates to velvetleaf (Abutilon theophrasti). A digest of the protocol:
as §1

Another assay relates to wild oat (Avena fatua). A digest of the protocol:
as §1

Another assay has as its system corn (Zea mays). A digest of the protocol:
as §1

The subject of assay [8] is morning glory (Ipomoea hederacea). A digest of the protocol: as §1
[9] abbreviates: Rate 125 g/ha, scale 0 (no effect) to 100 (complete control), 13 to 15 days.
The mark [10] stands for this setting: Rate 500 g/ha, scale 0 to 100, 0 is no effect, 100 is complete control, 13 to 15 days.
[11] abbreviates: Rate 125 g/ha, scale 0 to 100, 0 no effect, 100 complete control.
The mark [12] stands for this setting: Rate 500 g/ha, scale 0 (no effect) to 100 (complete control), 13 to 15 days.

SMILES strings stand for the structures.

With `CC(C)(C)c1ccn(C2CCN(c3cccc(C(F)(F)F)c3)C2=S)n1` (stereo not drawn) [Compound 22], the results for the “Plant response rating, Barnyardgrass” value in assay [1] (setting [9]) and in [1] (setting [10]) were 0 and 80, respectively. Further, the “Plant response rating, Wheat” value in assay [2] (setting [9]) and in assay [2] (setting [10]) was 0 in each case. In addition, the “Plant response rating, Pigweed” value is 80 in [3] (setting [9]) and 90 in [3] (setting [10]). Also, the “Plant response rating, Surinam grass” value in assay [4] (setting [10]) was determined as 20. The “Plant response rating, Foxtail, Giant” value in assay [5] (setting [9]) and in assay [5] (setting [10]) was 0 throughout. Also, the “Plant response rating, Lambsquarters” value in assay [6] (setting [9]) and in assay [6] (setting [10]) was 90 each time. Also, the “Plant response rating, Velvetleaf” value in assay [7] (setting [9]) stood at 20; in assay [7] (setting [10]), 30. Besides, the “Plant response rating, Wild Oat” value with wild oat (Avena fatua) (setting [9]) and in the assay with wild oat (Avena fatua) (setting [10]) was 0 throughout. Moreover, the “Plant response rating, Corn” value in the assay with corn (Zea mays) (setting [9]) and in the assay on corn (Zea mays) (setting [10]) was 0 each time. For the same compound, the “Plant response rating, Morningglory” value in assay [8] (setting [9]) and in assay [8] (setting [10]) was 30 each time.
In the case of `CCC(CC)c1ccn(C2CCN(c3ccc(Cl)c(OC)c3)C2=O)n1` (stereo not drawn) [Compound 118], the results for the “Plant response rating, Barnyardgrass” value in assay [1] (setting [11]) and in assay [1] (setting [10]) were 0 and 90, respectively. In assay [2] (setting [11]), the “Plant response rating, Wheat” value was found to be 20. The “Plant response rating, Pigweed” value in assay [3] (setting [11]) turned out to be 70. Moreover, the “Plant response rating, Surinam grass” value in [4] (setting [11]) worked out at 30; in assay [4] (setting [10]), 40. Moreover, the “Plant response rating, Foxtail, Giant” value in assay [5] (setting [11]) is reported as 0. Besides, the “Plant response rating, Lambsquarters” value in assay [6] (setting [11]) stood at 90. In addition, the “Plant response rating, Velvetleaf” value in assay [7] (setting [11]) is 40. The “Plant response rating, Wild Oat” value with wild oat (Avena fatua) (setting [11]) came to 30. Further, the “Plant response rating, Corn” value in the assay with corn (Zea mays) (setting [11]) and in the assay with corn (Zea mays) (setting [10]) was 20 in each case. Besides, the “Plant response rating, Morningglory” value in assay [8] (setting [11]) is reported as 40.
As to `CCOc1cccc(N2CCC(n3ccc(C(C)(C)C)n3)C2=O)c1` (stereo not drawn) [Compound 130], the entries for the “Plant response rating, Barnyardgrass” value in assay [1] (setting [11]) and in assay [1] (setting [10]) were 0 and 90, respectively. Further, the “Plant response rating, Wheat” value in [2] (setting [11]) is reported as 0. Further, the “Plant response rating, Pigweed” value in assay [3] (setting [11]) worked out at 80. Besides, the “Plant response rating, Surinam grass” value is reported as 0 in assay [4] (setting [11]) and 40 in [4] (setting [10]). The “Plant response rating, Foxtail, Giant” value in assay [5] (setting [11]) came to 0. In assay [6] (setting [11]), the “Plant response rating, Lambsquarters” value was 90. Also, the “Plant response rating, Velvetleaf” value in assay [7] (setting [11]) was 0. Further, the “Plant response rating, Wild Oat” value in the assay with wild oat (Avena fatua) (setting [11]) stood at 0. Besides, the “Plant response rating, Corn” value in the assay on corn (Zea mays) (setting [11]) and with corn (Zea mays) (setting [10]) was 0 throughout. Also, in assay [8] (setting [11]), the “Plant response rating, Morningglory” value amounted to 70.
Consider `CCCC(C)c1ccn(C2OCN(c3cccc(OC(F)F)c3)C2=O)n1` (stereo not drawn) [Compound 132], for which the figures for the “Plant response rating, Barnyardgrass” value in assay [1] (setting [11]) and in [1] (setting [10]) were 0 and 30, respectively. Also, the “Plant response rating, Wheat” value in assay [2] (setting [11]) was 0. The “Plant response rating, Pigweed” value in [3] (setting [11]) turned out to be 0. Further, the “Plant response rating, Surinam grass” value in assay [4] (setting [11]) and in assay [4] (setting [10]) was 0 each time. The “Plant response rating, Foxtail, Giant” value in assay [5] (setting [11]) came out at 0. Further, the “Plant response rating, Lambsquarters” value in [6] (setting [11]) came to 70. The “Plant response rating, Velvetleaf” value in [7] (setting [11]) is 0. In the assay with wild oat (Avena fatua) (setting [11]), the “Plant response rating, Wild Oat” value was found to be 0. In addition, the “Plant response rating, Corn” value in the assay with corn (Zea mays) (setting [11]) and with corn (Zea mays) (setting [10]) was 0 throughout. The “Plant response rating, Morningglory” value in assay [8] (setting [11]) came out at 0.
Regarding `CC(C)(C)c1ccn(C2OCN(c3cccc(OC(F)F)c3)C2=O)n1` (stereo not drawn) [Compound 133], the entries for the “Plant response rating, Barnyardgrass” value in assay [1] (setting [11]) and in [1] (setting [10]) were 80 and 100, respectively. Also, the “Plant response rating, Wheat” value in assay [2] (setting [11]) is 0. In assay [3] (setting [11]), the “Plant response rating, Pigweed” value turned out to be 80. For the same compound, the “Plant response rating, Surinam grass” value came to 0 in assay [4] (setting [11]) and 40 in [4] (setting [10]). Moreover, the “Plant response rating, Foxtail, Giant” value in assay [5] (setting [11]) worked out at 0. In assay [6] (setting [11]), the “Plant response rating, Lambsquarters” value is 100. Also, in assay [7] (setting [11]), the “Plant response rating, Velvetleaf” value is on record as 0. Further, the “Plant response rating, Wild Oat” value in the assay on wild oat (Avena fatua) (setting [11]) was 0. The “Plant response rating, Corn” value in the assay on corn (Zea mays) (setting [11]) and with corn (Zea mays) (setting [10]) was 0 each time. The “Plant response rating, Morningglory” value in assay [8] (setting [11]) was found to be 0.
In the case of `CCC(C)c1ccn(C2OCN(c3cccc(OC(F)F)c3)C2=O)n1` (stereo not drawn) [Compound 134], the “Plant response rating, Barnyardgrass” value was 90 in assay [1] (setting [11]) and 100 in assay [1] (setting [10]). In addition, the “Plant response rating, Wheat” value in [2] (setting [11]) came out at 0. Further, in [3] (setting [11]), the “Plant response rating, Pigweed” value came to 60. For the same compound, the “Plant response rating, Surinam grass” value in [4] (setting [11]) is listed as 20; in assay [4] (setting [10]) it was 60. In addition, in assay [5] (setting [11]), the “Plant response rating, Foxtail, Giant” value turned out to be 30. Moreover, in [6] (setting [11]), the “Plant response rating, Lambsquarters” value amounted to 100. Besides, in assay [7] (setting [11]), the “Plant response rating, Velvetleaf” value is recorded as 0. The “Plant response rating, Wild Oat” value in the assay with wild oat (Avena fatua) (setting [11]) is on record as 0. Besides, the “Plant response rating, Corn” value in the assay with corn (Zea mays) (setting [11]) is given as 0; with corn (Zea mays) (setting [10]), 20. Further, the “Plant response rating, Morningglory” value in assay [8] (setting [11]) is listed as 10.
Consider `Cc1cc(C)nc(N2CCC(n3ccc(C(C)(C)C)n3)C2=O)c1` (stereo not drawn) [Compound 138], for which the “Plant response rating, Barnyardgrass” value in assay [1] (setting [11]) and in assay [1] (setting [12]) was 0 in each case. Further, the “Plant response rating, Wheat” value in [2] (setting [11]) and in assay [2] (setting [12]) was 0 in each case. In addition, the “Plant response rating, Pigweed” value is listed as 0 in assay [3] (setting [11]) and 30 in assay [3] (setting [12]). The “Plant response rating, Surinam grass” value in [4] (setting [11]) and in assay [4] (setting [12]) was 0 throughout. Moreover, the “Plant response rating, Foxtail, Giant” value in [5] (setting [11]) and in [5] (setting [12]) was 0 throughout. In addition, the “Plant response rating, Lambsquarters” value in assay [6] (setting [11]) and in [6] (setting [12]) was 0 each time. In addition, the “Plant response rating, Velvetleaf” value in assay [7] (setting [11]) and in assay [7] (setting [12]) was 0 each time. Also, the “Plant response rating, Wild Oat” value in the assay on wild oat (Avena fatua) (setting [11]) and in the assay on wild oat (Avena fatua) (setting [12]) was 0 throughout. Moreover, the “Plant response rating, Corn” value in the assay with corn (Zea mays) (setting [11]) and with corn (Zea mays) (setting [12]) was 0 each time. Further, the “Plant response rating, Morningglory” value in assay [8] (setting [11]) is given as 10; in [8] (setting [12]), 30.
With `CCC(CC)c1ccn(C2CCN(c3ccc(F)c(C(F)(F)F)c3)C2=O)n1` (stereo not drawn) [Compound 144], the “Plant response rating, Barnyardgrass” value in [1] (setting [11]) and in assay [1] (setting [12]) was 0 throughout. The “Plant response rating, Wheat” value in [2] (setting [11]) and in assay [2] (setting [12]) was 0 throughout. For the same compound, the entries for the “Plant response rating, Pigweed” value in [3] (setting [11]) and in assay [3] (setting [12]) were 50 and 100, respectively. For the same compound, the “Plant response rating, Surinam grass” value in assay [4] (setting [11]) and in assay [4] (setting [12]) was 0 each time. For the same compound, the “Plant response rating, Foxtail, Giant” value amounted to 20 in assay [5] (setting [11]) and 40 in assay [5] (setting [12]). In addition, the “Plant response rating, Lambsquarters” value in [6] (setting [11]) and in assay [6] (setting [12]) was 100 throughout. The “Plant response rating, Velvetleaf” value in [7] (setting [11]) and in assay [7] (setting [12]) was 0 throughout. In addition, the “Plant response rating, Wild Oat” value in the assay on wild oat (Avena fatua) (setting [11]) and in the assay with wild oat (Avena fatua) (setting [12]) was 0 each time. The “Plant response rating, Corn” value in the assay on corn (Zea mays) (setting [11]) and in the assay with corn (Zea mays) (setting [12]) was 0 in each case. Further, the “Plant response rating, Morningglory” value is on record as 0 in [8] (setting [11]) and 30 in assay [8] (setting [12]).
`CCC(C)c1ccn(C2CCN(c3ccc(F)c(C(F)(F)F)c3)C2=O)n1` (stereo not drawn) [Compound 145]: the “Plant response rating, Barnyardgrass” value is 0 in [1] (setting [11]) and 90 in assay [1] (setting [12]). The “Plant response rating, Wheat” value in assay [2] (setting [11]) and in assay [2] (setting [12]) was 0 throughout. Also, the “Plant response rating, Pigweed” value in [3] (setting [11]) was determined as 0; in assay [3] (setting [12]), 80. In addition, the “Plant response rating, Surinam grass” value in [4] (setting [11]) and in [4] (setting [12]) was 0 in each case. Further, the “Plant response rating, Foxtail, Giant” value in assay [5] (setting [11]) worked out at 0; in assay [5] (setting [12]), 40. Besides, the entries for the “Plant response rating, Lambsquarters” value in assay [6] (setting [11]) and in assay [6] (setting [12]) were 80 and 100, respectively. Further, the “Plant response rating, Velvetleaf” value is 0 in assay [7] (setting [11]) and 30 in [7] (setting [12]). The “Plant response rating, Wild Oat” value with wild oat (Avena fatua) (setting [11]) and in the assay with wild oat (Avena fatua) (setting [12]) was 0 in each case. In addition, the “Plant response rating, Corn” value in the assay with corn (Zea mays) (setting [11]) and in the assay on corn (Zea mays) (setting [12]) was 0 in each case. For the same compound, the “Plant response rating, Morningglory” value in assay [8] (setting [11]) and in assay [8] (setting [12]) was 0 in each case.
